The values that follow come from patent publication US20050197371A1, “Urea derivatives as PDGFR modulators” (Ambit Biosciences Corporation, priority 2003, published 2005).

The test deals with T1, PDGFRB(DKIN) (PDGFR-β) (Homo sapiens, UniProt P09619).
T1 construct: PDGFRB(DKIN)
The experiment in a line: Phage-display competitive binding assay, PDGFRB(DKIN). As for the experimental part: The term “ND” represents non-determined values.
Briefly, T7 phage displaying human PDGFR-β were incubated with an affinity matrix coated with known PDGFR-β inhibitor in the presence of various concentrations of the soluble competitor molecules.

[1] abbreviates: T7 phage displaying human PDGFR-β, DKIN construct; read-out: Binding Assay: PDGFRB(DKIN).

pKd: −log10 of the molar value. Read-outs that look alike come from different tables or passages of the source.

Consider `CC(C)(C)c1cc(NC(=O)Nc2ccc(NC(=O)c3ccc(-n4cc(-c5ccncn5)cn4)cc3)cc2)no1` [Compound N76], for which the pKd under setting [1] is 6.00 to 7.00. With `CC(C)(C)c1cc(C(=O)Nc2ccc(NC(=O)Nc3cc(C(C)(C)C)on3)cc2)n(-c2ccccc2)n1` [Compound N78], the pKd under setting [1] was 5.00 to 6.00. In the case of `CC(=O)Oc1cccnc1C(=O)Nc1ccc(NC(=O)Nc2cc(C(C)(C)C)on2)cc1` [Compound N79], the pKd under setting [1] is more than 7.00.

Turning to `CC(C)(C)c1cc(NC(=O)Nc2ccc(NC(=O)Cc3noc4ccccc34)cc2)no1` [Compound N80], under setting [1], the pKd was more than 7.00.

With `CC(C)(C)c1cc(NC(=O)Nc2ccc(NC(=O)c3cccc[n+]3[O-])cc2)no1` [Compound N81], the pKd under setting [1] is more than 7.00. Take `CC(C)(C)c1cc(NC(=O)Nc2ccc(NC(=O)c3nocc3C(C)(C)C)cc2)no1` [Compound N82]: the pKd under setting [1] was 6.00 to 7.00.

As for `CCOC(=O)CCc1c(C)[nH]c(C(=O)Nc2ccc(NC(=O)Nc3cc(C(C)(C)C)on3)cc2)c1C` [Compound N83], the pKd under setting [1] was more than 7.00.

For the compound `Cc1ccc(NC(=O)c2ccc(NC(=O)Nc3cc(C(C)(C)C)on3)cc2)cc1` [Compound N84], the pKd under setting [1] is more than 7.00. For `CNC(=O)c1ccc(NC(=O)Nc2cc(C(C)(C)C)on2)cc1` [Compound N85], the pKd under setting [1] was 6.00 to 7.00. For the compound `CC(C)(C)c1cc(NC(=O)Nc2ccc(C(N)=O)cc2)no1` [Compound N86], under setting [1], the pKd was 6.00 to 7.00. With `CC(C)(C)c1cc(NC(=O)Nc2ccc(C(=O)NCCO)cc2)no1` [Compound N87], the pKd under setting [1] is 6.00 to 7.00. With `C[C@H](NC(=O)c1ccc(NC(=O)Nc2cc(C(C)(C)C)on2)cc1)c1ccccc1` [Compound N88], under setting [1], the pKd is 6.00 to 7.00.

In the case of `CC(C)(C)c1cc(NC(=O)Nc2ccc(C(=O)NCc3ccccc3)cc2)no1` [Compound N89], the pKd under setting [1] was 6.00 to 7.00. The same measure, in the same setting: in the case of `CC(C)(C)c1cc(NC(=O)Nc2ccc(C(=O)Nc3ccccc3)cc2)no1` [Compound N90] it was 6.00 to 7.00; in that of `CC(C)(C)c1cc(NC(=O)Nc2ccc(NC(=O)C3CCCCC3)cc2)no1` [Compound N91], 6.00 to 7.00; in that of `Cc1ccc(C(=O)Nc2ccc(NC(=O)Nc3cc(C(C)(C)C)on3)cc2)cc1` [Compound N92], more than 7.00.

As to `C/C=C/C(=O)Nc1ccc(NC(=O)Nc2cc(C(C)(C)C)on2)cc1` [Compound N93], the pKd under setting [1] was 5.00 to 6.00. Consider `CC(C)(C)c1cc(NC(=O)Nc2ccc(NC(=O)c3c(Cl)cccc3Cl)cc2)no1` [Compound N94], for which the pKd under setting [1] was 6.00 to 7.00. Consider `CC(C)(C)c1cc(NC(=O)Nc2ccc(NC(=O)c3c(F)cccc3C(F)(F)F)cc2)no1` [Compound N95], for which the pKd under setting [1] is 5.00 to 6.00. Take `CC(C)(C)c1cc(NC(=O)Nc2ccc(NC(=O)CCc3ccccc3)cc2)no1` [Compound N96]: the pKd under setting [1] is 6.00 to 7.00. With `CC(C)(C)c1cc(NC(=O)Nc2ccc(C(=O)NCc3ccc4c(c3)OCO4)cc2)no1` [Compound N97], the pKd under setting [1] was 5.00 to 6.00. Same read-out and setting: next, `CC(C)(C)c1cc(NC(=O)Nc2ccc(NC(=O)Cc3ccc(OCc4ccccc4)cc3)cc2)no1` [Compound N98]: less than 5.00; `CC(C)(C)c1cc(NC(=O)Nc2ccc(C(=O)Nc3ccc(OCC4CCC4)cc3)cc2)no1` [Compound N100]: 6.00 to 7.00.

Turning to `CC(C)(C)OC(=O)Nc1ccc(NC(=O)Nc2cc(C(C)(C)C)on2)cc1` [Compound N101], under setting [1], the pKd is 6.00 to 7.00. For `CCN(CC)CCNC(=O)c1ccc(NC(=O)Nc2cc(C(C)(C)C)on2)cc1` [Compound N102], the pKd under setting [1] was less than 5.00. On to `Cc1ccncc1C(=O)Nc1ccc(NC(=O)Nc2cc(C(C)(C)C)on2)cc1` [Compound N104], for which the pKd under setting [1] was 6.00 to 7.00. The same measure, in the same setting: next, `COc1cccc(-c2ccc(C(=O)Nc3ccc(NC(=O)Nc4cc(C(C)(C)C)on4)cc3)o2)c1` [Compound N105]: 6.00 to 7.00. In the case of `CC(C)(C)c1cc(NC(=O)Nc2ccc(NC(=O)c3cc4ccccc4cn3)cc2)no1` [Compound N106], the pKd (read-out: Binding Assay: PDGFRB(DKIN); T7 phage displaying human PDGFR-β, DKIN construct) was more than 7.00. In the case of `CC(C)(C)c1cc(NC(=O)Nc2ccc(NC(=O)Cc3csc4ccccc34)cc2)no1` [Compound N107], under setting [1], the pKd was 5.00 to 6.00. For the compound `CC(C)(C)c1cc(NC(=O)Nc2ccc(NC(=O)c3cnc4ccccc4c3)cc2)no1` [Compound N108], the pKd under setting [1] was more than 7.00. On to `CC(C)(C)c1cc(NC(=O)Nc2ccc(NC(=O)c3cccc4nsnc34)cc2)no1` [Compound N109], for which the pKd under setting [1] is more than 7.00. In the case of `CC(C)(C)c1cc(NC(=O)Nc2ccc(NC(=O)c3ccc4cnccc4n3)cc2)no1` [Compound N110], the pKd under setting [1] was more than 7.00. In the case of `CC(C)(C)c1cc(NC(=O)Nc2ccc(NC(=O)c3cccc4c3OCCO4)cc2)no1` [Compound N111], the pKd under setting [1] is 6.00 to 7.00. Consider `CC(C)(C)c1cc(NC(=O)Nc2ccc(NC(=O)c3cc(Cl)cn(Cc4ccccc4)c3=O)cc2)no1` [Compound N112], for which, under setting [1], the pKd is 6.00 to 7.00. As to `COC(=O)c1ccc(C(=O)Nc2ccc(NC(=O)Nc3cc(C(C)(C)C)on3)cc2)nc1` [Compound N113], the pKd under setting [1] was more than 7.00.

As for `CSc1ncc(Br)c(C(=O)Nc2ccc(NC(=O)Nc3cc(C(C)(C)C)on3)cc2)n1` [Compound N114], the pKd under setting [1] is more than 7.00. In the case of `CC(C)(C)c1cc(NC(=O)Nc2ccc(NC(=O)c3cccc4cccnc34)cc2)no1` [Compound N115], the pKd under setting [1] is more than 7.00. `Cc1nn(C)c(Cl)c1C(=O)Nc1ccc(NC(=O)Nc2cc(C(C)(C)C)on2)cc1` [Compound N116]: the pKd under setting [1] is more than 7.00. `CC(C)(C)c1cc(NC(=O)Nc2ccc(NC(=O)c3nccc4ccccc34)cc2)no1` [Compound N117]: under setting [1], the pKd is more than 7.00. Same read-out and setting: next, `COc1ccc(-c2cc(C(=O)Nc3ccc(NC(=O)Nc4cc(C(C)(C)C)on4)cc3)c(C)o2)cc1` [Compound N118]: 5.00 to 6.00; `Cn1cc(C(=O)Nc2ccc(NC(=O)Nc3cc(C(C)(C)C)on3)cc2)c2ccccc21` [Compound N119]: more than 7.00; `Cc1ccc(-c2cc(C(=O)Nc3ccc(NC(=O)Nc4cc(C(C)(C)C)on4)cc3)c(C)o2)cc1` [Compound N120]: 5.00 to 6.00.

With `Cc1cccc(C(=O)Nc2ccc(NC(=O)Nc3cc(C(C)(C)C)on3)cc2)n1` [Compound N121], under setting [1], the pKd was more than 7.00.

As to `CC(C)(C)c1cc(NC(=O)Nc2ccc(NC(=O)c3ccc4sccc4c3)cc2)no1` [Compound N122], the pKd under setting [1] was more than 7.00. As to `CC(C)(C)c1cc(NC(=O)Nc2ccc(NC(=O)c3cnc(Cl)c(Cl)c3)cc2)no1` [Compound N123], the pKd under setting [1] was 5.00 to 6.00.

Turning to `CC(C)(C)c1cc(NC(=O)Nc2ccc(NC(=O)c3coc(-c4ccc(Cl)cc4)n3)cc2)no1` [Compound N124], the pKd under setting [1] was 6.00 to 7.00.

Take `CC(C)(C)c1cc(NC(=O)Nc2ccc(NC(=O)c3ccc(Cl)nc3)cc2)no1` [Compound N125]: the pKd under setting [1] was 6.00 to 7.00. Still for that read-out and setting: next, `CC(C)(C)c1cc(NC(=O)Nc2ccc(NC(=O)c3cc4cc(Br)ccc4s3)cc2)no1` [Compound N126]: 6.00 to 7.00; `Cc1ccc2[nH]c(C(=O)Nc3ccc(NC(=O)Nc4cc(C(C)(C)C)on4)cc3)cc2c1` [Compound N127]: more than 7.00. `COc1cc(OC)nc(C2CCCCC2C(=O)Nc2ccc(NC(=O)Nc3cc(C(C)(C)C)on3)cc2)n1` (stereo not drawn) [Compound N129]: the pKd under setting [1] is 6.00 to 7.00. Still for that read-out and setting: in the case of `CC(C)(C)c1cc(NC(=O)Nc2ccc(NC(=O)c3ccc(Cl)nc3Cl)cc2)no1` [Compound N130] it was 6.00 to 7.00; in that of `Cc1ccc2sc(C(=O)Nc3ccc(NC(=O)Nc4cc(C(C)(C)C)on4)cc3)cc2c1` [Compound N133], more than 7.00. Take `CC(C)(C)c1cc(NC(=O)Nc2ccc(NC(=O)c3cnc4cc(C(F)(F)F)ccc4c3O)cc2)no1` [Compound N146]: the pKd under setting [1] is 5.00 to 6.00. Turning to `CC(C)(C)c1cc(NC(=O)Nc2ccc(NC(=O)c3cnnc4ccccc34)cc2)no1` [Compound N147], the pKd under setting [1] is more than 7.00. `CC(C)(C)c1cc(NC(=O)Nc2ccc(NC(=O)c3c4ccccc4nc4ccccc34)cc2)no1` [Compound N148]: under setting [1], the pKd is 5.00 to 6.00. On to `CC(C)(C)c1cc(NC(=O)Nc2ccc(NC(=O)c3cnc4ccccc4n3)cc2)no1` [Compound N149], for which the pKd under setting [1] was 5.00 to 6.00. Regarding `CC(C)(C)c1cc(NC(=O)Nc2ccc(NC(=O)c3ccc4ncccc4c3)cc2)no1` [Compound N151], the pKd under setting [1] is more than 7.00.

As to `CC(C)(C)c1cc(NC(=O)Nc2ccc(C(=O)Nc3ccc(F)cc3F)cc2)no1` [Compound N153], under setting [1], the pKd was 6.00 to 7.00. With `CC(C)(C)c1cc(NC(=O)Nc2ccc(C(=O)Nc3nccnc3N)cc2)no1` [Compound N157], the pKd under setting [1] is more than 7.00. Take `CN(C)c1ccc(C(=O)Nc2ccc(NC(=O)Nc3cc(C(C)(C)C)on3)cc2)cn1` [Compound N159]: under setting [1], the pKd is more than 7.00. Consider `Cc1cnc(C(=O)Nc2ccc(NC(=O)Nc3cc(C(C)(C)C)on3)cc2)c(C(=O)O)n1` [Compound N160], for which the pKd under setting [1] was more than 7.00. Turning to `CC(C)(C)c1cc(NC(=O)Nc2ccc(NC(=O)c3cc4ccccc4[nH]3)cc2)no1` [Compound N161], under setting [1], the pKd was more than 7.00. With `COc1cc(C(=O)Nc2ccc(NC(=O)Nc3cc(C(C)(C)C)on3)cc2)nc(OC)n1` [Compound N162], the pKd under setting [1] is more than 7.00. In the case of `CCOC(=O)c1cccc(C(=O)Nc2ccc(NC(=O)Nc3cc(C(C)(C)C)on3)cc2)n1` [Compound N164], under setting [1], the pKd is more than 7.00. In the case of `CC(C)(C)c1cc(NC(=O)Nc2ccc(NC(=O)c3cccnc3C(=O)O)cc2)no1` [Compound N165], under setting [1], the pKd was 6.00 to 7.00. On to `CC(C)(C)c1cc(NC(=O)Nc2ccc(NC(=O)c3ccc(Oc4ccnc(C(=O)O)c4)cc3)cc2)no1` [Compound N166], for which, under setting [1], the pKd was more than 7.00. Regarding `CC(C)(C)c1cc(NC(=O)Nc2ccc(NC(=O)c3ccncc3)cc2)no1` [Compound N167], the pKd under setting [1] is more than 7.00. On to `Cc1cc(NC(=O)c2cn3nc(Cl)ccc3n2)ccc1NC(=O)Nc1cc(C(C)(C)C)on1` [Compound N169], for which, under setting [1], the pKd is 6.00 to 7.00. Same read-out and setting: in the case of `Cc1cc(NC(=O)[C@](C)(O)CSc2ccc(F)cc2)ccc1NC(=O)Nc1cc(C(C)(C)C)on1` [Compound N170] it was 6.00 to 7.00.
